Laboratory results taken from patent US8728797B2, “Yeast membrane protein expression system and its application in drug screening” (priority 2001, dated 2014).
In brackets after ≈: the same amount, converted by molar mass.

Experiments:
[1] = system: S. cerevisiae AD1002 expressing C. albicans Cdr1p; assay: MIC microdilution test, strain expressing Cdr1p; assay type: cell-based; details: for MIC80: AD1002 expressing Cdr1p, 30° C., 48 h, pH 7.0; for fold increase in MIC: AD1002 relative to parental AD1-8u^−
Experimental: (§1) The MICs of antifungal agents for S. cerevisiae cells were determined by a microdilution test based on the macrodilution reference method of the National Committee for Clinical Laboratory Standards. Cells (10 μl cell suspension, 2×10^5 cells/ml) were inoculated into 90 μl CSM-URA, buffered with 10 mM 2-(N-morpholino)ethanesulfonic acid (MES) and 18 mM N-2-hydroxyethylpiperazine-N′-2-ethanesulfonic acid (HEPES), pH 7.0 and containing 0.67% (w/v) yeast nitrogen base (YNB) in microtitre plate wells. For the uracil-requiring strain AD1-8u^− the medium was supplemented with 0.02% (w/v) uridine. The wells contained, in […], doubling dilutions of antifungal agents (final concentrations: fluconazole, 40-0.078 μg/ml; itraconazole and ketoconazole, 8-0.016 μg/ml). The microtitre plates were incubated at 30° C. for 48 h with shaking and then the growth of cells in individual wells (OD590) was measured with a microplate reader (EL 340, Bio-Tek, Winooski, Vt.). The MIC80 was the lowest concentration of drug that inhibited growth yield by at least 80% compared to a no-drug control.

S. cerevisiae AD1-8u^− = assay: MIC microdilution test, parental strain; assay type: cell-based; details: Saccharomyces cerevisiae; AD1-8u^− parental strain; 30° C., 48 h, pH 7.0
Experimental: as §1

S. cerevisiae AD1-8/CDR2 = assay: MIC microdilution test, strain expressing Cdr2p; assay type: cell-based; details: Saccharomyces cerevisiae, AD18/CDR2, 30° C.
Experimental: as §1

[2] = system: AD124567 (Pdr5p-overexpressing); assay: Disk drug susceptibility assay of chemosensitisation to fluconazole; assay type: cell-based, S. cerevisiae; details: 120 μg/ml fluconazole, 47 nanomole peptide on disk
Experimental: (A) Checkerboard drug susceptibility assay of AD124567 in the presence of the indicated concentrations of fluconazole and KN20. (B) Disk drug susceptibility assay of AD124567. This assay was conducted, as described in Materials and methods for example 4, in the absence or presence of fluconazole (120 μg/ml), and in the presence of (1) KN0 (47 nanomole), (2) KN20 (47 nanomole) or (0) control amounts of DMSO applied to disks
(§2) Drug susceptibility was measured using disk assays on CSM-URA plates (containing 1.5% w/v agar). Plates were seeded with yeast cells suspended in top agar (5 ml, 10^5 cells/ml). For the uracil-dependent parental strain, agar was supplemented with 0.02% uridine. Five microliters of drug solution or solvent control were spotted onto sterile Whatman paper disks on the top agar. […]

AD1002 = assay: as above; assay type: cell-based, S. cerevisiae; details: 5 μg/ml fluconazole, 12 nanomole peptide on disk
Experimental: (A) Checkerboard drug susceptibility assay of AD1002. This assay was conducted as described in Materials and methods in the presence of the indicated concentrations of fluconazole and KN20. (B) Disk drug susceptibility assay of AD1002. This assay was conducted, as described in Materials and methods for Example 4, in the absence or presence of 5 μg/ml fluconazole, with (1) KN0 (12 nanomole), (2) KN20 (12 nanomole) or (0) control amounts of DMSO applied to the disks. (C) Checkerboard drug susceptibility assay of ATCC 10261. This assay was conducted, as described in Material and methods for Example 4, in the presence of the indicated concentrations of fluconazole and KN20. D indicates cell death as measured by a failure to recover any colony forming units when samples from microtitre plate wells were cultured on solid YPD medium.
as §2

Pdr5p ATPase = molecular target: T1, Pdr5p ATPase (Saccharomyces cerevisiae, UniProt P33302); assay: Oligomycin sensitive ATPase activity of AD124567 plasma membranes; assay type: biochemical, S. cerevisiae; details: in vitro
T1 construct: plasma membranes from the AD124567 yeast strain overexpressing Pdr5p; endogenous in cells; host or cells: S. cerevisiae AD124567 (pdr1-3, PDR5 intact), plasma membrane fraction
Experimental: (A) Inhibition profiles of oligomycin-sensitive Pdr5p ATPase activity by the purified peptides D-NH2-asparagine-tryptophan-tryptophan-lysine-valine-arginine-arginine-arginine-CONH2 (KN0) and its singly substituted Mtr-derivative KN20. (B) Inhibition profile with KN20 on the oligomycin-sensitive Cdr1p ATPase activity of plasma membranes from AD1002 minus the oligomycin-sensitive ATPase activity of plasma membranes from the isogenic AD1-8u^− strain.
Yeast were grown in YEPD, pH 5.5 at 30° C. until they reached late-exponential phase of growth (OD600 nm=7), washed twice in ice-cold distilled water, and incubated on ice for 30 min to minimize glucose-stimulated Pma1p activity. Cells were resuspended in homogenising medium (50 mM Tris pH 7.5, 2 mM EDTA and 1 mM phenylmethylsulfonyl fluoride) and disrupted using a Braun Homogeniser. Cell debris and unbroken cells were removed by centrifuging at 2,000×g at 4° C. for 10 min. A crude membrane fraction was isolated from the cell-free supernatant by centrifuging at 30,000×g at 4° C. for 45 min. Plasma membranes were prepared by centrifugation of the supernatant obtained after selective precipitation of mitochondria at pH 5.2 as described previously (Goffeau, A. and Dufour, J. P., 1988). […] Protein was determined using a micro-Bradford (Bio-Rad Laboratories, Hercules, Calif. [Bradford, M. M., 1976]) assay with gamma-globulin as standard. Nucleotide triphosphatase activity was measured by incubating the plasma membrane fractions (10 μg) at 30° C. in a final volume of 120 μl containing 6 mM NTP, 7 mM MgSO4 in 59 mM MES-Tris buffer pH 6.0-8.0. […] Other ATPase inhibitors (20 μM oligomycin, 20 μM aurovertin B or 100 μM vanadate were added to the reaction where indicated. After 30 min the reaction was stopped by adding 130 μl of a solution containing 1% (w/v) SDS, 0.6 M H2SO4, 1.2% (w/v) ammonium molybdate and 1.6% (w/v) ascorbic acid. Inorganic phosphate released from NTPs was measured at 750 nm after 10 min incubation at room temperature.

T1 sequence (P33302 whole entry): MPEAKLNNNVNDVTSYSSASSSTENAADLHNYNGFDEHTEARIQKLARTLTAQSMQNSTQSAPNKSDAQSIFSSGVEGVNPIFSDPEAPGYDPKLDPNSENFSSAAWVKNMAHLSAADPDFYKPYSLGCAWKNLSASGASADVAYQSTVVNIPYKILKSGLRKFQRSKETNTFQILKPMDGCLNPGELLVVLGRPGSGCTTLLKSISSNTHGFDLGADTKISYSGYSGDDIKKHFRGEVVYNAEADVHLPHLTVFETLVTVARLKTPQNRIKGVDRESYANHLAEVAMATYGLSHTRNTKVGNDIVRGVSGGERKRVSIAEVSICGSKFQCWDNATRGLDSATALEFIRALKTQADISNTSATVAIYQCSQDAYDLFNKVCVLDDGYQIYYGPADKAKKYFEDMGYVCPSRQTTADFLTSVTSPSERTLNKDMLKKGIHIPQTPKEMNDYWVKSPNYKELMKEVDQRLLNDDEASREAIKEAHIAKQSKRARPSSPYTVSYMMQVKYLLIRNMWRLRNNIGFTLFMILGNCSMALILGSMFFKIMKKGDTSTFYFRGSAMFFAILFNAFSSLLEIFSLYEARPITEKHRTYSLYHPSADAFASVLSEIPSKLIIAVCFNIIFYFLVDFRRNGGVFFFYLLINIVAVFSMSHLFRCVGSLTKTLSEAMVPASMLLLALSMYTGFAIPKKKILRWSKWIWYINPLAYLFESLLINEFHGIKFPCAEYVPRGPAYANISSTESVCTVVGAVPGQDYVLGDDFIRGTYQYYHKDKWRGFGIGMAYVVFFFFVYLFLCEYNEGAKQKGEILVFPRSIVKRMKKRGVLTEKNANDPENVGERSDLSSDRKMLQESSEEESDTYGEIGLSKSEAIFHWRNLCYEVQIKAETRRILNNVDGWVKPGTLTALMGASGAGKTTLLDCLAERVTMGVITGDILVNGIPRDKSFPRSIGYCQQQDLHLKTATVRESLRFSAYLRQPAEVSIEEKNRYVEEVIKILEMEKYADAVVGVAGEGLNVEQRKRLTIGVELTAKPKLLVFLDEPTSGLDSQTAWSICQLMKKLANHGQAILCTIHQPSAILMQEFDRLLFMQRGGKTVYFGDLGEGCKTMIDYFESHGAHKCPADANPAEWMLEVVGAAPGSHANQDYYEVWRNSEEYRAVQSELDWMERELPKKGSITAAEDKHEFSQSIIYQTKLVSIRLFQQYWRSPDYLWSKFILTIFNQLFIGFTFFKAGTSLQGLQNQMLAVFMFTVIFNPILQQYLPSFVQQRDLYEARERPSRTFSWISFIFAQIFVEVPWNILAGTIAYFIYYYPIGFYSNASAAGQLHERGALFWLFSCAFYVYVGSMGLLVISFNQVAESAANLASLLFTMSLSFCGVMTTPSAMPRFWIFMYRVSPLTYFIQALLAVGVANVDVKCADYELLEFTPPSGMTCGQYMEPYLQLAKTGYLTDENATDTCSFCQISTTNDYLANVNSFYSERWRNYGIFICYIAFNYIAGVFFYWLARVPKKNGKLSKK

Row | Compound | MIC80 [1] [µg/mL] | fold increase in MIC [1] [fold] | MIC80 (S. cerevisiae AD1-8u^−) [µg/mL] | MIC80 (S. cerevisiae AD1-8/CDR2) [µg/mL] | chemosensitisation to fluconazole in disk assay [2] | chemosensitisation to fluconazole in disk assay (AD1002) | effect on oligomycin sensitive Pdr5p ATPase activity (Pdr5p ATPase)
1 | CCC(C)n1ncn(-c2ccc(N3CCN(c4ccc(OCC5COC(Cn6cncn6)(c6ccc(Cl)cc6Cl)O5)cc4)CC3)cc2)c1=O (centres unmarked) [itraconazole] | 4 (≈ 5.67 µM) | > 250 | < 0.016 | 1 (≈ 1.42 µM) |  |  | 
2 | CC(=O)N1CCN(c2ccc(OCC3COC(Cn4ccnc4)(c4ccc(Cl)cc4Cl)O3)cc2)CC1 (centres unmarked) [ketoconazole] | 0.5 (≈ 0.941 µM) | > 31 | < 0.016 | 2 (≈ 3.76 µM) |  |  | 
3 | D-NH2-asparagine-tryptophan-tryptophan-lysine-valine-arginine-arginine-arginine-CONH2 [KN0] |  |  |  |  | ineffective at chemosensitisation | ineffective at chemosensitisation | ineffective
